Source: patent US20020132758A1, “Method for identifying compounds to treat medical pathologies associated with molecular crystallization” (priority 2001, published 2002)
≈ marks a conversion by molar mass, not a printed value.

Test: Water solubility of cholesterol at 37° C. determined by HPLC
Format: physicochemical
Protocol: Reference is made to two chemical compounds: pure cholesterol (C-pure), and modified cholesterol (C-mod). C-mod is made by partial thermal degradation of C-pure. As a consequence, C-mod is structurally very similar, but not identical, to C-pure. In the first of three steps to this example, a quantity of C-mod is produced by heating 10 grams of dry C-pure in the presence of oxygen for 30 minutes at 134° C., which is a temperature that is 15° below the melting point of the pure substance. In a second step to this example, 10 mg of C-pure is added to one liter of distilled water. The resulting suspension is then stirred at 50° C. for two hours, followed by stirring at 37° C. for 6 hours. The concentration of solute in solution at 37° is then determined by an HPLC analytical method. […] In the third and final step to this example, the process of the second step is repeated with 10 mg of C-pure in one liter of distilled water, and 10 mg of C-mod is also added to the initial suspension. In this case, HPLC determination of the concentration of C-pure in the supernatant solution results in a finding of 1.2 mg/100 mL. […] This increase in apparent solubility of C-pure is considered to be a consequence of the selective inhibition of crystal nucleation and growth, due to the presence of molecules that are similar to but not identical to those of the solute.

CC(C)CCC[C@@H](C)[C@H]1CC[C@H]2[C@@H]3CC=C4C[C@@H](O)CC[C@]4(C)[C@H]3CC[C@]12C [C-pure, cholesterol]
concentration of C-pure in the supernatant solution (apparent solubility) (10 mg C-pure plus 10 mg C-mod in one liter distilled water, 37° C., HPLC specific to C-pure): 1.2 mg/100 mL | solubility thermodynamic (thermodynamic from solid, 10 mg C-pure in one liter distilled water, stirred 50° C. 2 h then 37° C. 6 h, HPLC, no C-mod): 4.5 µg/mL (≈ 11.6 µM)
